Experimental findings from patent US8940943B2, “Cosmetic preparations” (Cognis IP Management GmbH, priority 2010, dated 2015) are described below.

Data set [1] deals with human skin. In words: occlusive epicutaneous 24 h patch test (skin compatibility). As for the experimental part: The di(2-propylheptyl)ether obtained according to production example 2 was compared in an occlusive epicutaneous 24 h patch test against the commercially available di-n-octyl ether. […] 24 after application the patch was removed, after a further 6 hours the first visual assessment was carried out, further assessments were carried out 24, 48 and 72 hours after the patch was removed.
The assessment was based on a scale from 0 (no reaction) to 4 (strong reaction) in the categories: erythema formation, edema formation, formation of scales (=squamation) and formation of cracks (=fissuration). A so-called total irritation score RSS value was found from the values obtained.

For data set [2], the system named is human skin. In words: in-vivo patch test, 24 hours on human skin, skin reddening or irritation. The settings on record: compared to diethylhexyl ether, water and surfactant solution as negative and positive standards. As for the experimental part:
In an in-vivo patch test, the test substances are applied on human skin and left there for 24 hours. Then an assessment is made with respect to possible occurrence of skin reddening or irritation. As comparison, in each case water and a surfactant solution are tested as negative and positive standards.

On to `CCCCCC(CCC)COCC(CCC)CCCCC` (stereo not shown) [Di(2-propylheptyl)ether], for which the “total irritation score RSS” value in the data set with human skin [1] (human, in vivo, 24 h) came to 3.62. For the same molecule, the skin compatibility entry in the data set with human skin [2] is recorded as “improved skin compatibility”.

In the case of `CCCCCCCCOCCCCCCCC` [Di-n-alkyl ether (Cetiol ® OE), di-n-octyl ether], in the data set on human skin [1] (human, in vivo, 24 h), the “total irritation score RSS” value amounted to 7.1.

In the case of `CCCCCCCCCCCCOS(=O)(=O)[O-].[Na+]` [Positive control, sodium dodecyl sulfate], the “total irritation score RSS” value with human skin [1] (22 test subjects, applied on back, occlusive 24 h patch (Finn Chambers), assessed 6, 24, 48 and 72 h after patch removal, scale 0-4 for erythema, edema, squamation, fissuration) is given as 7.95.
